Reference: PubChem BioAssay (NCI)
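In this assay, cells in 96-well plates receive the compound at five concentrations for 48 hours. Endpoints are linearly interpolated between the surrounding concentrations. At the TGI there is no net growth.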 *1 amine or outer side, *2 acyl side, *3 side chain or, on linkers, in order; H or OH if unused. Where a SMILES comes first, the peptide text is derived from it. The star is where a group is joined. γGlu = O=C(O)[CH](CCC(=O)[*:2])N[*:1]; NHOH = ON*

Legend:
Assay in all cases: growth of human tumour cells (NCI), 48 h
[1] = test system: 786-0 renal
[2] = test system: A549 NSCLC
[3] = test system: CAKI-1 renal
[4] = test system: COLO 205 colon
[5] = test system: DMS 114 small cell lung
[6] = test system: HCC-2998 colon
[7] = test system: HOP-92 NSCLC
[8] = test system: K-562 leukemia
[9] = test system: LOX IMVI melanoma
[10] = test system: NCI-H226 lung
[11] = test system: OVCAR-5 ovarian
[12] = test system: SK-MEL-28 melanoma
[13] = test system: SW-620 colon
[14] = test system: UACC-62 melanoma
[15] = test system: BT-549 breast
[16] = test system: HL-60(TB) leukemia
[17] = test system: MCF7 breast
[18] = test system: MDA-MB-231 breast
[19] = test system: MDA-N
[20] = test system: T-47D breast

CC(=O)NC(CCCNC(=O)OCc1ccccc1)C(=O)O (stereo not given)
TGI [1]: > 100 µM
TGI [2]: > 100 µM
TGI [3]: > 100 µM
TGI [4]: > 100 µM
TGI [5]: > 100 µM
TGI [6]: > 100 µM
TGI [7]: > 100 µM
TGI [8]: > 100 µM
TGI [9]: > 100 µM
TGI [10]: > 100 µM
TGI [11]: > 100 µM
TGI [12]: > 100 µM
TGI [13]: > 100 µM
TGI [14]: > 100 µM

COC(=O)N/N=C(/c1nc2ccc([N+](=O)[O-])cc2[nH]c1=O)C(O)c1ccc(OC)c(OC)c1 (stereo not given)
TGI [1]: > 100 µM
TGI [2]: > 100 µM
TGI [15]: > 100 µM
TGI [3]: > 100 µM
TGI [4]: > 76.9 µM
TGI [5]: 51.3 µM
TGI [6]: > 100 µM
TGI [16]: > 100 µM
TGI [7]: > 100 µM
TGI [8]: > 100 µM
TGI [9]: > 61.7 µM
TGI [17]: > 100 µM
TGI [18]: > 100 µM
TGI [19]: > 100 µM
TGI [10]: > 100 µM
TGI [11]: > 100 µM
TGI [12]: > 100 µM
TGI [13]: > 100 µM
TGI [20]: > 100 µM
TGI [14]: > 100 µM

CCOC(=O)CNC(=O)C(CCC(=O)NO)NC(=O)CCC(N)C(=O)O (stereo not given) (γGlu-Glu(NHOH)-Gly-OEt; configuration not given here)
TGI [1]: > 100 µM
TGI [2]: > 100 µM
TGI [15]: > 100 µM
TGI [3]: > 100 µM
TGI [4]: > 100 µM
TGI [6]: > 100 µM
TGI [16]: > 100 µM
TGI [7]: > 100 µM
TGI [8]: > 100 µM
TGI [9]: > 100 µM
TGI [17]: > 100 µM
TGI [18]: > 100 µM
TGI [19]: > 100 µM
TGI [10]: > 100 µM
TGI [11]: > 100 µM
TGI [12]: > 100 µM
TGI [13]: > 100 µM
TGI [20]: > 100 µM
TGI [14]: > 100 µM

CC(C)(C)OC(=O)NC(CS(=O)(=O)O)C(=O)O (stereo not given)
TGI [1]: > 100 µM
TGI [2]: > 100 µM
TGI [15]: > 100 µM
TGI [3]: > 100 µM
TGI [4]: > 100 µM
TGI [6]: > 100 µM
TGI [16]: > 100 µM
TGI [7]: > 100 µM
TGI [8]: > 100 µM
TGI [9]: > 100 µM
TGI [17]: > 100 µM
TGI [18]: > 100 µM
TGI [19]: > 100 µM
TGI [10]: > 100 µM
TGI [11]: > 100 µM
TGI [12]: > 100 µM
TGI [13]: > 100 µM
TGI [20]: > 100 µM
TGI [14]: > 100 µM

CNc1ncnc2c1cnn2CCCCO
TGI [1]: > 100 µM
TGI [2]: > 100 µM
TGI [15]: > 100 µM
TGI [3]: > 100 µM
TGI [4]: > 100 µM
TGI [6]: > 100 µM
TGI [16]: > 100 µM
TGI [7]: > 100 µM
TGI [8]: > 100 µM
TGI [9]: > 100 µM
TGI [17]: > 100 µM
TGI [18]: > 100 µM
TGI [19]: > 100 µM
TGI [10]: > 100 µM
TGI [11]: > 100 µM
TGI [12]: > 100 µM
TGI [13]: > 100 µM
TGI [20]: > 100 µM
TGI [14]: > 100 µM

O=C(O)c1nc2ccccc2nc1NCc1ccc(F)cc1
TGI [1]: > 100 µM
TGI [2]: > 100 µM
TGI [15]: > 100 µM
TGI [3]: > 100 µM
TGI [4]: 93.5 µM
TGI [6]: > 100 µM
TGI [16]: > 100 µM
TGI [7]: > 100 µM
TGI [8]: > 100 µM
TGI [9]: > 100 µM
TGI [17]: > 100 µM
TGI [18]: > 100 µM
TGI [19]: > 100 µM
TGI [10]: > 100 µM
TGI [11]: > 100 µM
TGI [12]: > 100 µM
TGI [13]: > 100 µM
TGI [20]: > 100 µM
TGI [14]: > 100 µM
